Reference: patent US20230011869A1 (Hoffmann-La Roche Inc., priority 2018, published 2023)
Counter-ions that a name gives are not always drawn.

System: Acinetobacter baumannii ATCC17978
Experiment: Antimicrobial susceptibility testing: 90% growth inhibitory concentration (IC90) determination, Iso-Sensitest broth
Assay type: cell-based
Settings: 90% growth inhibitory concentration, Acinetobacter baumannii ATCC17978, Iso-Sensitest broth, OD 600 nm over 16 h; read-out: ATCC17978 IC90
Method in brief: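 A. baumannii ATCC17978 grown in Iso-Sensitest broth across 10 compound concentrations at 35±2 °C.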

| Structure (SMILES) | IC90 |
| --- | --- |
| COc1ccc(-c2cnc3c(Nc4ccc(C(=O)N5CCC(C(=O)N6CCN(c7nccn7C)CC6)CC5)c(C)c4)nccn23)cc1F [Example 397, [4-[[3-(3-fluoro-4-methoxyphenyl)imidazo[1,2-a]pyrazin-8-yl]amino]-2-methylphenyl]-[4-[4-(1-methylimidazol-2-yl)piperazine-1-carbonyl]piperidin-1-yl]methanone] | 360 nM |
| CCc1cc(Nc2nccn3c(-c4ccc(OC)c(F)c4)cnc23)ccc1C(=O)N1CCN(C(=O)CNC)CC1 [Example 398, 1-[4-[2-ethyl-4-[[3-(3-fluoro-4-methoxyphenyl)imidazo[1,2-a]pyrazin-8-yl]amino]benzoyl]piperazin-1-yl]-2-(methylamino)ethanone; hy-drochloride] | 370 nM |

The next lines start with the values.

| IC90 | Structure (SMILES) |
| --- | --- |
| 240 nM | Cc1cc(Nc2nccn3c(-c4ccc(OCC#CCO)c(F)c4)cnc23)ccc1C(=O)N1CCC(CN)CC1 [Example 387, [4-(aminomethyl)piperidin-1-yl]-[4-[[3-[3-fluoro-4-(4-hydroxybut-2-ynoxy)phenyl]imidazo[1,2-a]pyrazin-8-yl]amino]-2-methylphenyl]methanone; for-mic acid] |
| 260 nM | COc1ccc(-c2cnc3c(Nc4ccc(C(=O)N5CCC(C(=O)NC(CO)(CO)CO)CC5)c(C)c4)nccn23)cc1F [Example 388, N-[1,3-dihydroxy-2-(hydroxymethyl)propan-2-yl]-1-[4-[[3-(3-fluoro-4-methoxyphenyl)imidazo[1,2-a]pyrazin-8-yl]amino]-2-methylbenzoyl]piperidine-4-carboxamide] |
| 310 nM | COc1ccc(-c2cnc3c(Nc4ccc(C(=O)N5CCN(S(N)(=O)=O)CC5)c(C)c4)nccn23)cc1F [Example 389, 4-[4-[[3-(3-fluoro-4-methoxyphenyl)imidazo[1,2-a]pyrazin-8-yl]amino]-2-methylbenzoyl]piperazine-1-sulfonamide] |
| 320 nM | COc1ccc(-c2cnc3c(Nc4ccc(C(=O)N5CCC(N6CCCC(CO)C6)CC5)c(C)c4)nccn23)cc1F (stereo not shown) [Example 390, [4-[[3-(3-fluoro-4-methoxyphenyl)imidazo[1,2-a]pyrazin-8-yl]amino]-2-methylphenyl]-[4-[3-(hydroxymethyl)piperidin-1-1-yl)piperidin-1-yl]methanone] |
| 340 nM | COc1ccc(-c2cnc3c(Nc4ccc(C(=O)N5CCC(C(=O)N6CCNC7(CC7)C6)CC5)c(C)c4)nccn23)cc1F [Example 395, [4-(4,7-diazaspiro[2.5]octane-7-carbonyl)piperidin-1-yl]-[4-[[3-(3-fluoro-4-methoxyphenyl)imidazo[1,2-a]pyrazin-8-yl]amino]-2-methylphenyl]methanone; hy-drochloride] |
| 340 nM | COc1ccc(-c2cnc3c(Nc4ccc(C(=O)N5CCC(C(=O)NCCNCCO)CC5)c(C)c4)nccn23)cc1F [Example 396, 1-[4-[[3-(3-fluoro-4-methoxyphenyl)imidazo[1,2-a]pyrazin-8-yl]amino]-2-methylbenzoyl]-N-[2-(2-hydroxyethylamino)ethyl]pi-peridine-4-carboxamide; 2,2,2-trifluoroacetic acid] |
| 380 nM | COc1ccc(-c2cnc3c(Nc4ccc(C(=O)N5CCC(CNCCC#N)CC5)c(C)c4)nccn23)cc1 [Example 399, 3-[[1-[4-[[3-(4-methoxyphenyl)imidazo[1,2-a]pyrazin-8-yl]amino]-2-methylbenzoyl]piperidin-4-yl]methylamino]propanenitrile] |
| 400 nM | COc1ccc(-c2cnc3c(Nc4ccc(C(=O)N5CCC(N6CCC(O)CC6)CC5)c(C)c4)nccn23)cc1F [Example 401, [4-[[3-(3-fluoro-4-methoxyphenyl)imidazo[1,2-a]pyrazin-8-yl]amino]-2-methylphenyl]-[4-(4-hydroxypiperidin-1-yl)piperidin-1-yl]methanone] |
| 430 nM | COc1ccc(-c2cnc3c(Nc4ccc(C(=O)N5CCC(C(=O)NCC(O)CO)CC5)c(C)c4)nccn23)cc1F (stereo not shown) [Example 402, N-(2,3-dihydroxypropyl)-1-[4-[[3-(3-fluoro-4-methoxyphenyl)imidazo[1,2-a]pyrazin-8-yl]amino]-2-methylbenzoyl]piperidine-4-carboxamide] |

Same assay, conditions: Acinetobacter baumannii, ATCC17978, 16 h, read-out: ATCC17978 IC90, 90% growth inhibitory concentration, Acinetobacter baumannii ATCC17978, Iso-Sensitest broth, OD 600 nm over 16 h

| Structure (SMILES) | IC90 |
| --- | --- |
| CNCCN(C)C(=O)C1CCN(C(=O)c2ccc(Nc3nccn4c(-c5ccc(OC)c(F)c5)cnc34)cc2C)CC1 [Example 391, 1-[4-[[3-(3-fluoro-4-methoxyphenyl)imidazo[1,2-a]pyrazin-8-yl]amino]-2-methylbenzoyl]-N-methyl-N-[2-(methylamino)ethyl]piperidine-4-carboxamide; hydrochloride] | 340 nM |
| COc1ccc(-c2cnc3c(Nc4ccc(C(=O)N5CCC(C(=O)N6CC[C@@H](N)[C@@H](O)C6)CC5)c(C)c4)nccn23)cc1F [Example 392, [4-[(3S,4R)-4-amino-3-hydroxypiperidine-1-carbonyl]piperidin-1-yl]-[4-[[3-(3-fluoro-4-methoxyphenyl)imidazo[1,2-a]pyrazin-8-yl]amino]-2-methylphenyl]methanone; 2,2,2-trifluoroacetic acid] | 340 nM |
| COc1ccc(-c2cnc3c(Nc4ccc(C(=O)N5CCC(C(=O)NCCN)CC5)c(C)c4)nccn23)cc1F [Example 393, N-(2-aminoethyl)-1-[4-[[3-(3-fluoro-4-methoxyphenyl)imidazo[1,2-a]pyrazin-8-yl]amino]-2-methylbenzoyl]piperidine-4-carboxamide; hydrochloride] | 340 nM |
| COc1ccc(-c2cnc3c(Nc4ccc(C(=O)N5CCC(CN)CC5)c(C(F)(F)F)c4)nccn23)cc1F [Example 394, [4-(aminomethyl)piperidin-1-yl]-[4-[[3-(3-fluoro-4-methoxyphenyl)imidazo[1,2-a]pyrazin-8-yl]amino]-2-(trifluoromethyl)phenyl]meth-anone; formic acid] | 340 nM |
| COc1ccc(-c2cnc3c(Nc4ccc(C(=O)N5CCC(C(=O)N6CC7(CNC7)C6)CC5)c(C)c4)nccn23)cc1F [Example 400, [4-(2,6-diazaspiro[3.3]heptane-2-carbonyl)piperidin-1-yl]-[4-[[3-(3-fluoro-4-methoxyphenyl)imidazo[1,2-a]pyrazin-8-yl]amino]-2-methylphenyl]methanone; 2,2,2-trifluoroacetic acid] | 390 nM |
| COc1ccc(-c2cnc3c(Nc4ccc(C(=O)N5CCC(C(=O)NCC6CNCCN6)CC5)c(C)c4)nccn23)cc1F (stereo not shown) [Example 403, 1-[4-[[3-(3-fluoro-4-methoxyphenyl)imidazo[1,2-a]pyrazin-8-yl]amino]-2-methylbenzoyl]-N-(piperazin-2-ylmethyl)piperidine-4-carboxamide; 2,2,2-trifluoroacetic acid] | 440 nM |
| Cc1cc(Nc2nccn3c(-c4ccc(OC(F)F)cc4)cnc23)ccc1C(=O)N1CCC(C(=O)N(C)CCN2CCNC(=O)C2)CC1 [Example 404, 1-[4-[[3-[4-(difluoromethoxy)phenyl]imi-dazo[1,2-a]pyrazin-8-yl]amino]-2-methylbenzoyl]-N-methyl-N-[2-(3-oxopiperazin-1-yl)ethyl]piperidine-4-carboxamide] | 470 nM |
| Cc1cc(Nc2nccn3c(-c4ccc(OC(F)F)cc4)cnc23)ccc1C(=O)N1CCC(C(=O)NC23CN4CN(CN(C4)C2)C3)CC1 [Example 405, 1-[4-[[3-[4-(difluoromethoxy)phenyl]imi-dazo[1,2-a]pyrazin-8-yl]amino]-2-methylbenzoyl]-N-(1,3,5-triazatricyclo[3.3.1.1^3,7]decan-7-yl)piperidine-4-carboxamide] | 480 nM |
